Data reported in PubChem BioAssay (NCI).
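These data come from cells grown in 96-well plates and exposed to compound for 48 hours at five concentrations. Abbreviation: GI50, concentration required for 50% inhibition of growth. At the TGI there is no net growth.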

Experiments:
Test in all cases: NCI anticancer screen, dose series, 48 h
HCT-116 colon = tested on: HCT-116 colon
SK-MEL-28 melanoma = tested on: SK-MEL-28 melanoma
MOLT-4 leukemia = tested on: MOLT-4 leukemia
HT29 colon = tested on: HT29 colon
TK-10 renal = tested on: TK-10 renal
NCI-H226 lung = tested on: NCI-H226 lung
SF-295 CNS = tested on: SF-295 CNS
SW-620 colon = tested on: SW-620 colon
EKVX NSCLC = tested on: EKVX NSCLC
SF-539 CNS = tested on: SF-539 CNS
OVCAR-3 ovarian = tested on: OVCAR-3 ovarian

COc1cccc(NC(=O)CSc2nnc(-c3ccc(N=Cc4ccc(Cl)cc4)cc3)o2)c1
TGI (HCT-116 colon): 36.3 µM | TGI (SK-MEL-28 melanoma): 37.5 µM | TGI (MOLT-4 leukemia): 93.3 µM | TGI (HT29 colon): 29.8 µM | TGI (TK-10 renal): 74.3 µM | TGI (NCI-H226 lung): 43.4 µM | TGI (SF-295 CNS): 43.5 µM | TGI (SW-620 colon): 37.9 µM | TGI (EKVX NSCLC): > 100 µM

Cn1c(=O)c2c(-c3ccccc3)onc2n(C)c1=O
TGI (HCT-116 colon): > 100 µM | TGI (MOLT-4 leukemia): 81.5 µM | TGI (HT29 colon): > 100 µM | TGI (TK-10 renal): 42.9 µM | TGI (NCI-H226 lung): > 100 µM | TGI (SF-539 CNS): > 100 µM | TGI (SF-295 CNS): > 100 µM | TGI (OVCAR-3 ovarian): 53.1 µM | TGI (SW-620 colon): > 100 µM | TGI (EKVX NSCLC): > 100 µM

Cc1cccc(C(C)(C)C)c1NC(=O)/C(Cc1nc2ccc([N+](=O)[O-])cc2[nH]c1=O)=N/NC(=O)C[N+](C)(C)C
TGI (HCT-116 colon): > 100 µM | TGI (SK-MEL-28 melanoma): > 100 µM | TGI (MOLT-4 leukemia): > 100 µM | TGI (HT29 colon): > 100 µM | TGI (NCI-H226 lung): > 100 µM | TGI (SF-539 CNS): > 100 µM | TGI (SF-295 CNS): > 100 µM | TGI (OVCAR-3 ovarian): > 100 µM | TGI (SW-620 colon): > 100 µM | TGI (EKVX NSCLC): > 100 µM

N#Cc1c(NC(=O)c2ccccc2)sc2c1CCC(=O)C2
GI50 (MOLT-4 leukemia): 1.2 µM | TGI (MOLT-4 leukemia): > 100 µM | GI50 (HT29 colon): 0.747 µM | TGI (HT29 colon): > 100 µM | GI50 (TK-10 renal): 1.98 µM | TGI (TK-10 renal): 28.7 µM | GI50 (NCI-H226 lung): 2.75 µM | TGI (NCI-H226 lung): 12.1 µM | GI50 (SF-539 CNS): 0.78 µM | TGI (SF-539 CNS): 2.59 µM | GI50 (SF-295 CNS): 1.96 µM | TGI (SF-295 CNS): 6.83 µM | GI50 (OVCAR-3 ovarian): 1.04 µM | TGI (OVCAR-3 ovarian): 2.43 µM | GI50 (SW-620 colon): 0.524 µM | TGI (SW-620 colon): 3.69 µM | GI50 (EKVX NSCLC): 2.33 µM | TGI (EKVX NSCLC): 10.4 µM

N#CC1=C(N)C(C#N)(C#N)C(c2ccc(F)cc2)C=C1C1CC1 (centres undefined)
TGI (HCT-116 colon): 15.8 µM | TGI (SK-MEL-28 melanoma): 39.3 µM | TGI (MOLT-4 leukemia): 25.5 µM | TGI (HT29 colon): 22.8 µM | TGI (TK-10 renal): 44 µM | TGI (SF-539 CNS): 2.42 µM | TGI (SF-295 CNS): 25.8 µM | TGI (OVCAR-3 ovarian): 18.1 µM | TGI (SW-620 colon): 56 µM | TGI (EKVX NSCLC): 75.4 µM

NC(Cc1cc(I)c(O)c(I)c1)C(=O)O (centres undefined)
TGI (HCT-116 colon): > 500 µM | TGI (SK-MEL-28 melanoma): > 500 µM | TGI (MOLT-4 leukemia): > 500 µM | TGI (HT29 colon): > 393 µM | TGI (NCI-H226 lung): > 500 µM | TGI (SF-539 CNS): > 500 µM | TGI (SF-295 CNS): > 500 µM | TGI (OVCAR-3 ovarian): > 500 µM | TGI (SW-620 colon): > 500 µM | TGI (EKVX NSCLC): > 316 µM

CCOC(=O)c1nc2c3c(ncn2n1)Oc1c(c(-c2ccccc2)nn1-c1ccccc1)C3c1ccc(Cl)cc1 (centres undefined)
TGI (HCT-116 colon): > 100 µM | TGI (SK-MEL-28 melanoma): > 100 µM | TGI (HT29 colon): > 100 µM | TGI (TK-10 renal): > 100 µM | TGI (NCI-H226 lung): > 100 µM | TGI (SF-539 CNS): > 100 µM | TGI (SF-295 CNS): > 100 µM | TGI (OVCAR-3 ovarian): > 100 µM | TGI (SW-620 colon): > 100 µM

CCOC(=O)c1ccc2nc(NC(=O)COC(=O)CSc3nc(C)cc(C)n3)sc2c1
TGI (HCT-116 colon): > 100 µM | TGI (SK-MEL-28 melanoma): > 100 µM | TGI (MOLT-4 leukemia): > 100 µM | TGI (HT29 colon): > 100 µM | TGI (TK-10 renal): > 100 µM | TGI (SF-539 CNS): 80.6 µM | TGI (SF-295 CNS): > 100 µM | TGI (OVCAR-3 ovarian): 91.5 µM | TGI (SW-620 colon): > 100 µM | TGI (EKVX NSCLC): 62 µM

COc1cc2cc(C(=O)N3CC(CCl)c4c3cc(N)c3ccccc43)[nH]c2cc1OCCN(C)C (centres undefined)
TGI (HCT-116 colon): 0.623 µM | TGI (MOLT-4 leukemia): 17.4 µM | TGI (HT29 colon): 5.17 µM | TGI (TK-10 renal): 8.67 µM | TGI (NCI-H226 lung): 0.0224 µM | TGI (OVCAR-3 ovarian): 0.0209 µM | TGI (EKVX NSCLC): 10.7 µM

O=C(Nn1c(-c2ccccc2)nc2ccccc2c1=O)c1ccccn1
TGI (HCT-116 colon): > 100 µM | TGI (SK-MEL-28 melanoma): > 100 µM | TGI (MOLT-4 leukemia): > 100 µM | TGI (HT29 colon): > 100 µM | TGI (TK-10 renal): > 100 µM | TGI (SF-539 CNS): > 100 µM | TGI (SF-295 CNS): > 100 µM | TGI (OVCAR-3 ovarian): > 100 µM | TGI (SW-620 colon): > 100 µM | TGI (EKVX NSCLC): > 100 µM

COP(=O)(OC)C(N)CCSC (centres undefined)
TGI (HCT-116 colon): > 100 µM | TGI (SK-MEL-28 melanoma): > 100 µM | TGI (MOLT-4 leukemia): > 100 µM | TGI (HT29 colon): > 100 µM | TGI (TK-10 renal): > 100 µM | TGI (NCI-H226 lung): > 100 µM | TGI (SF-295 CNS): > 100 µM | TGI (OVCAR-3 ovarian): > 100 µM | TGI (SW-620 colon): > 100 µM | TGI (EKVX NSCLC): > 100 µM

CC(C)CCC[C@@H](C)[C@H]1CC[C@H]2[C@@H]3CC=C4C[C@@H](OC(=O)c5cccc6c(=O)c7ccccc7[nH]c56)CC[C@]4(C)[C@H]3CC[C@]12C
TGI (SK-MEL-28 melanoma): > 75 µM | TGI (MOLT-4 leukemia): > 75 µM | TGI (HT29 colon): > 75 µM | TGI (TK-10 renal): > 75 µM | TGI (NCI-H226 lung): > 75 µM | TGI (SF-539 CNS): > 75 µM | TGI (SF-295 CNS): > 75 µM | TGI (OVCAR-3 ovarian): > 75 µM | TGI (SW-620 colon): > 75 µM | TGI (EKVX NSCLC): > 75 µM

CC1=CC(O)C(O)C2(C)C1CC1OC(=O)C(O)C3C(C)C(O)C4(O)OCC13C42 (centres undefined)
TGI (HCT-116 colon): > 625 µM | TGI (SK-MEL-28 melanoma): 502 µM | TGI (MOLT-4 leukemia): 65.6 µM | TGI (HT29 colon): 159 µM | TGI (NCI-H226 lung): 243 µM | TGI (SF-539 CNS): 237 µM | TGI (SF-295 CNS): 364 µM | TGI (OVCAR-3 ovarian): 121 µM | TGI (SW-620 colon): 224 µM | TGI (EKVX NSCLC): 197 µM

COc1ccc(/C=C2\Cc3ccccc3C2=O)cc1OC
TGI (SK-MEL-28 melanoma): > 100 µM | TGI (MOLT-4 leukemia): > 100 µM | TGI (HT29 colon): > 100 µM | TGI (TK-10 renal): > 100 µM | TGI (SF-295 CNS): > 100 µM | TGI (OVCAR-3 ovarian): > 100 µM | TGI (SW-620 colon): > 100 µM | TGI (EKVX NSCLC): > 100 µM

O=S1(=O)NNC(=NCc2ccc(Cl)cc2)c2ccccc21
TGI (HCT-116 colon): > 100 µM | TGI (MOLT-4 leukemia): > 100 µM | TGI (HT29 colon): > 100 µM | TGI (NCI-H226 lung): > 100 µM | TGI (SF-539 CNS): > 100 µM | TGI (SF-295 CNS): > 100 µM | TGI (OVCAR-3 ovarian): > 100 µM | TGI (SW-620 colon): > 100 µM | TGI (EKVX NSCLC): > 100 µM

CC1(C)COC(c2cccc(C3=NC(C)(C)CO3)c2Br)=N1
TGI (HCT-116 colon): > 100 µM | TGI (SK-MEL-28 melanoma): > 100 µM | TGI (MOLT-4 leukemia): > 100 µM | TGI (HT29 colon): > 100 µM | TGI (TK-10 renal): > 100 µM | TGI (NCI-H226 lung): > 100 µM | TGI (SF-539 CNS): > 100 µM | TGI (SW-620 colon): > 100 µM | TGI (EKVX NSCLC): > 100 µM

CS(=O)(=O)OCCN1CCC2(CC1)SSC1(CCN(CCOS(C)(=O)=O)CC1)S2
TGI (HCT-116 colon): > 100 µM | TGI (SK-MEL-28 melanoma): > 100 µM | TGI (MOLT-4 leukemia): > 100 µM | TGI (HT29 colon): > 100 µM | TGI (TK-10 renal): 55.8 µM | TGI (SF-539 CNS): > 100 µM | TGI (SF-295 CNS): > 100 µM | TGI (OVCAR-3 ovarian): 99.7 µM | TGI (SW-620 colon): > 100 µM

N#Cc1c(Nc2ccc(F)cc2)[n+]([O-])c2ccc(Cl)cc2[n+]1[O-]
TGI (HCT-116 colon): > 100 µM | TGI (SK-MEL-28 melanoma): > 100 µM | TGI (MOLT-4 leukemia): 9.09 µM | TGI (HT29 colon): > 100 µM | TGI (TK-10 renal): > 100 µM | TGI (NCI-H226 lung): 28.8 µM | TGI (SF-539 CNS): 7.31 µM | TGI (SF-295 CNS): 4.95 µM | TGI (OVCAR-3 ovarian): 13.3 µM | TGI (SW-620 colon): > 100 µM

O=C(c1ccccc1)c1c(C(F)(F)F)n([O-])c2ccccc2[n+]1=O
TGI (HCT-116 colon): > 100 µM | TGI (SK-MEL-28 melanoma): 4.33 µM | TGI (MOLT-4 leukemia): 0.516 µM | TGI (HT29 colon): 2.23 µM | TGI (TK-10 renal): 3.6 µM | TGI (SF-539 CNS): 5.77 µM | TGI (OVCAR-3 ovarian): 1.41 µM | TGI (SW-620 colon): > 100 µM | TGI (EKVX NSCLC): 6.04 µM

NC(N)=N/N=C/c1c(-c2ccc([N+](=O)[O-])cc2)nc2sccn12
TGI (HCT-116 colon): 3.05 µM | TGI (SK-MEL-28 melanoma): 3.74 µM | TGI (HT29 colon): 2.95 µM | TGI (TK-10 renal): 3.22 µM | TGI (SF-539 CNS): 3.34 µM | TGI (SF-295 CNS): 2.87 µM | TGI (OVCAR-3 ovarian): 2.89 µM | TGI (EKVX NSCLC): 3.44 µM

CC1(C)O[C@@H](CO)[C@H]([C@@]23OC[C@H]4OC(C)(C)OC4[C@@H]2OC(C)(C)O3)O1 (some centres undefined)
TGI (HCT-116 colon): > 100 µM | TGI (SK-MEL-28 melanoma): > 100 µM | TGI (MOLT-4 leukemia): > 100 µM | TGI (HT29 colon): > 100 µM | TGI (NCI-H226 lung): > 100 µM | TGI (SF-295 CNS): > 100 µM | TGI (OVCAR-3 ovarian): > 100 µM | TGI (SW-620 colon): > 100 µM | TGI (EKVX NSCLC): > 100 µM
